According to patent US12691068B2, “Modular lipid compounds and two- to three-component lipid nanoparticle compositions” (SunVax mRNA Therapeutics Inc., priority 2022, dated 2026):

Tested on: HEK293T cells
Assay: In vitro transfection efficiency of LNPs encapsulating SamRNA-GFP in HEK293T cells (flow cytometry)
Assay type: cell-based
Conditions: modular lipid/DOPE/DMG-PEG2000 40/10/2 mole ratio, 100 ng RNA, 24 hours
Method: The modular lipids of the disclosure were mixed with at least one of ionizable lipid, DOPE, cholesterol (Chol), and/or DMG-PEG2000 in ethanol at a predetermined molar ratio. Ionizable lipid: SamRNA molar ratio of 6:1 was used to prepare an organic phase. SamRNA-LUC or SamRNA-GFP was diluted in 50 mM citrate buffer (pH 4.5, Fisher) or PBS (pH 7.4, Fisher) to prepare an aqueous phase. The SamRNA was stored at −80° C. and was thawed on ice prior to use. The ethanol and aqueous phases were mixed at a 1:3 ratio by pipette. The resultant LNPs were purified by ultrafiltration (100,000 cut-off, MilliporeSigma™ Amicon™ Ultra-15 Centrifugal Filter Units) at 4° C. prior to injection.
LNPs containing SamRNA-GFP or SamRNA-LUC were added into 96-well plate at 100 ng/well pre-seeded with HEK293, C2C12 or MC38 cells. After a 24 hour incubation at 37° C. and 5% CO2, the SamRNA-LUC transfection efficiency was measured by plate reader (Perkin Elmer Envision 2104) and GFP SamRNA transfection efficiency was measured by flow cytometry (BD FACSymphony™ A5 SE Cell Analyzer).
The transfection efficacy of LNPs formulated using modular lipids P161F5, P161F6 or P161F10; DOPE and DMG-PEG2000 (modular lipid/DOPE/DMG-PEG2000, 40/10/2 mole ratio) encapsulating LNP-SamRNA-GFP were studied using HEK293T cells in 96-well plates. […]

Compound | transfection efficiencies compared with four-component LNPs containing MC3 and SM102
CCCCCCCCCCCCC(CCCCCCCCCC)CN(C(=O)CCC(C)C1CCC2C3CC(O)C4CC(O)CCC4(C)C3CCC12C)C(C(=O)NC12CC3CC(CC(C3)C1)C2)C1CCN(CC)CC1 (centres unmarked) [P161F6, N-(2-(((1s,3s)-adamantan-1-yl)amino)-1-(1-ethylpiperidin-4-yl)-2-oxoethyl)-N-(2-decyltetradecyl)-4-(3,6-dihydroxy-10,13-dimethylhexadecahydro-1H-cyclopenta[a]phenanthren-17-yl) pentanamide] | comparable or higher
CCCCCCCCCCC(CCCCCCCC)CN(C(=O)CCC(C)C1CCC2C3CC(O)C4CC(O)CCC4(C)C3CCC12C)C(CC1CCN(C)CC1)C(=O)NC12CC3CC(CC(C3)C1)C2 (centres unmarked) [P161F10, N-(1-(((1s,3s)-adamantan-1-yl)amino)-3-(1-methylpiperidin-4-yl)-1-oxopropan-2-yl)-4-(3,6-dihydroxy-10,13-dimethylhexadecahydro-1H-cyclopenta[a]phenanthren-17-yl)-N-(2-octyldodecyl)pentanamide] | comparable or higher
